This note sets out measurements from the OligoGym collection.

The target of this data set is DGAT2. The conditions noted are these: ASO.

Several values for one entry are separate records, joined by “and”; a condition that tells them apart may be missing. Identical values can stand only once. After the bases stand the sugars from the 5' end (letter, count) and the backbone: PS all phosphorothioate, else s phosphorothioate and o phosphodiester by linkage. Methylation of C is not given here. e = 2'-O-(2-methoxyethyl) (MOE); d = 2'-deoxy (DNA)

Where the note is “HepG2, 0.12 µM”, “AGGTTAGCTGAGCCACCCAG (sugars e5 d10 e5, PS)” came in with a target mRNA inhibition of 59%.

Regarding “AGGTTGTGTGTCTTCACCAG (sugars e5 d10 e5, PS)”, the target mRNA inhibition (HepG2, 0.12 µM) is 59% and 74%.

Regarding “AGTAAGGGTATTCTGCTCAT (sugars e5 d10 e5, PS)”, the target mRNA inhibition is, setting by setting: (HepG2, 2.5 µM) 87%; (HepG2, 10 µM) 77%.

With “AGTCCAAACACTCAGGTAGG (sugars e5 d10 e5, PS)”, the target mRNA inhibition is, setting by setting: (HepG2, 2.5 µM) 66%; (HepG2, 10 µM) 79%.

In turn, “AGTCTAGTTGGAAAAGTAGA (sugars e5 d10 e5, PS)” registered a target mRNA inhibition (HepG2, 0.12 µM) of 16%.

The sequence “AGTTCCTGGTGGTCAGCAGG (sugars e5 d10 e5, PS)” showed a target mRNA inhibition (HepG2, 0.12 µM) of 58%.

Take “AGTTTCCTTTGAAATCCAAT (sugars e5 d10 e5, PS)”: the target mRNA inhibition runs as follows: (HepG2, 2.5 µM) 65%; (HepG2, 10 µM) 88%.

Turning to “AGTTTCGGACCCACTGTGAC (sugars e2 d13 e5, PS)”, the target mRNA inhibition (HepG2, 0.12 µM) was found to be 64%.

Consider “AGTTTGCTCAGTTCTTCCAA (sugars e5 d10 e5, PS)”, for which the target mRNA inhibition (HepG2, 2.5 µM) was found to be 61% and the target mRNA inhibition (HepG2, 10 µM) amounted to 91%.

The sequence “ATAACCCACAGACACCCATG (sugars e5 d10 e5, PS)” registered a target mRNA inhibition (HepG2, 0.12 µM) of 24%.

As for “ATAGGCCTGGATGCCCAAGT (sugars e5 d10 e5, PS)”, the target mRNA inhibition is, setting by setting: (HepG2, 2.5 µM) 49%; (HepG2, 10 µM) 88%.

For “ATATACAAAAGTCTGACATG (sugars e5 d10 e5, PS)”, the target mRNA inhibition (HepG2, 0.12 µM) was 21%.

Regarding “ATCTCAGTCACTGACTCACA (sugars e5 d10 e5, PS)”, the target mRNA inhibition by setting is: (HepG2, 2.5 µM) 46%; (HepG2, 10 µM) 95%.

For the sequence “ATGCCAATGCCTAGGTC (sugars e3 d10 e4, PS)”, where the note is “HepG2, 2.5 µM”, the target mRNA inhibition is 70% and 84%.

As to “ATGGGAATGGTATCGCACTC (sugars e5 d10 e5, PS)”, the target mRNA inhibition reads like this: (HepG2, 2.5 µM) 57% and 72%; (HepG2, 10 µM) 80% and 96%.

For the sequence “ATTGCCACTCCCATTCTTTG (sugars e5 d10 e5, PS)”, the target mRNA inhibition (HepG2, 0.12 µM) came to 35%.

“CAAATCTGTGTGACCTTGGG (sugars e5 d10 e5, PS)”: the target mRNA inhibition runs as follows: (HepG2, 2.5 µM) 65%; (HepG2, 10 µM) 93%.

For “CACCAGCCAAGTGAAGTAGA (sugars e5 d10 e5, PS)”, the target mRNA inhibition (HepG2, 0.12 µM) came out at 23%.

For “CACCAGGGCCTCCATGTACA (sugars e3 d14 e3, PS)”, the target mRNA inhibition (HepG2, 0.12 µM) is 41%.

With “CACTAAATTAGGAAGCTGGG (sugars e5 d10 e5, PS)”, the target mRNA inhibition reads like this: (HepG2, 2.5 µM) 81% and 82%; (HepG2, 10 µM) 83% and 85%.

In turn, “CACTTCTGTGGCCTCTGTGC (sugars e5 d10 e5, PS)” had a target mRNA inhibition (HepG2, 0.12 µM) of 38%.

In the case of “CAGCGATGAGCCAGCAA (sugars e3 d10 e4, PS)”, the target mRNA inhibition runs as follows: (HepG2, 2.5 µM) 35%; (HepG2, 10 µM) 88%.

In turn, “CAGGACCCCGGAGTAGGCGG (sugars e5 d10 e5, PS)” showed a target mRNA inhibition (HepG2, 0.12 µM) of 75%.

Take “CAGGACCTCAGGGCTGGCCC (sugars e5 d10 e5, PS)”: the target mRNA inhibition was 57% and 50% (HepG2, 2.5 µM); 71% (HepG2, 10 µM).

The sequence “CAGGCCCCACTGCTTAGAGG (sugars e5 d10 e5, PS)” yielded a target mRNA inhibition (HepG2, 0.12 µM) of 48%.

Sequence “CAGGGTGACTTTGCCCCATT (sugars e5 d10 e5, PS)” had a target mRNA inhibition (HepG2, 0.12 µM) of 43%.

Where the note is “HepG2, 0.12 µM”, “CAGGTAAGGCCGTATGCCTG (sugars e5 d10 e5, PS)” returned a target mRNA inhibition of 63%.

The sequence “CAGGTACTCCCTCAACACAG (sugars e5 d10 e5, PS)” had a target mRNA inhibition (HepG2, 0.12 µM) of 52%.

Consider “CAGGTCCTCCGTGAGAGCGC (sugars e5 d10 e5, PS)”, for which the target mRNA inhibition (HepG2, 0.12 µM) amounted to 29%.

Consider “CAGGTTGTGTGTCTTCACCA (sugars e2 d13 e5, PS)”, for which the target mRNA inhibition (HepG2, 0.12 µM) was found to be 62%.

Under “HepG2, 0.12 µM”, “CAGGTTGTGTGTCTTCACCA (sugars e3 d14 e3, PS)” displayed a target mRNA inhibition of 68%.

As for “CAGTGCCCCATCTCCCAGAC (sugars e5 d10 e5, PS)”, for the setting “HepG2, 0.12 µM”, the target mRNA inhibition came to 0%.

For “CAGTTTCGGACCCACTGTGA (sugars e3 d14 e3, PS)”, for the setting “HepG2, 0.12 µM”, the target mRNA inhibition came out at 58%.

With “CATGGAGCTCAGAGACTCAG (sugars e3 d14 e3, PS)”, the target mRNA inhibition (HepG2, 0.12 µM) came out at 62%.

Under “HepG2, 0.12 µM”, “CATGTCATCAGCCACCCAAG (sugars e5 d10 e5, PS)” showed a target mRNA inhibition of 16%.

For “CATTGCCACCCCCATCCTCA (sugars e5 d10 e5, PS)”, the target mRNA inhibition (HepG2, 0.12 µM) amounted to 9%.

In turn, “CCAAAGATATAGTTCCTGGT (sugars e5 d10 e5, PS)” yielded a target mRNA inhibition (HepG2, 0.12 µM) of 66%.

Sequence “CCAATGCCTAGGTCACAGTT (sugars e5 d10 e5, PS)” returned a target mRNA inhibition (HepG2, 2.5 µM) of 91% and a target mRNA inhibition (HepG2, 10 µM) of 83%.

For the sequence “CCACCTTCCAGGGAATAAAA (sugars e5 d10 e5, PS)”, the target mRNA inhibition (HepG2, 0.12 µM) was 22%.

Where the note is “HepG2, 0.12 µM”, “CCAGGCCAAGGCTGAGTCTG (sugars e5 d10 e5, PS)” yielded a target mRNA inhibition of 27%.

With “CCAGGGCCTCCATGTACATG (sugars e3 d14 e3, PS)”, the target mRNA inhibition (HepG2, 0.12 µM) was 86%; the target mRNA inhibition (HepG2, 10 µM) worked out at 59%; the target mRNA inhibition (HepG2, 20 µM) came out at 41%.

As for “CCAGGTAAGGCCGTATGCCT (sugars e2 d13 e5, PS)”, where the note is “HepG2, 0.12 µM”, the target mRNA inhibition turned out to be 64%.
